# Experimental data from US20240383908A1, “SYNTHESIS AND APPLICATION OF PHOSPHATASE DEGRADER” (HINOVA PHARMACEUTICALS INC., priority 2021, published 2024).
# Target: T1, SHP2 protein (Homo sapiens, UniProt Q06124)
# T1 sequence (Q06124 1-593): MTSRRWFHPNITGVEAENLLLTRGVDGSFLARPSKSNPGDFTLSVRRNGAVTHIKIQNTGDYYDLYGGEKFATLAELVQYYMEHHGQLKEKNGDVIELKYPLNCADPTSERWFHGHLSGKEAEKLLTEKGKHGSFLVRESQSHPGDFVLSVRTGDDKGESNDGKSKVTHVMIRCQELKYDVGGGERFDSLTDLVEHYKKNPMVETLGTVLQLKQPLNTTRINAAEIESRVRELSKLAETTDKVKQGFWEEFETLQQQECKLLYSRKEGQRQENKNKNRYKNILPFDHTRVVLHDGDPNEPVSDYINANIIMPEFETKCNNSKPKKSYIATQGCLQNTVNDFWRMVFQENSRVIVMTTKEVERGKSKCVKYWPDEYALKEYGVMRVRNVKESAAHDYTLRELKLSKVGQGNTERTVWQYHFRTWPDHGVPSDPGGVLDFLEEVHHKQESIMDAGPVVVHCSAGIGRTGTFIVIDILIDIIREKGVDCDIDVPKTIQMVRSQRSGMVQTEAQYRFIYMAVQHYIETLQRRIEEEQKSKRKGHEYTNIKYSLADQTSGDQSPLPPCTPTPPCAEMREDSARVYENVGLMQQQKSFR
# Assay: Degradation activity on SHP2 protein in MV-411 cells (Western blot, DC50)
# Format: cell-based
# Set-up: endogenous in cells
# Details: MV411 cells, 24 hours, read-out: Degradation activity for differenct cell lines MV411 (DC50)
# Experimental: • MV-411 cell line (COBIER, CBP-60522) • FBS (GEMINI, Cat. No. 900-108) • 0.01M PBS (Biosharp, Cat. No. 162262) • IMDM (Hyclone, Cat. No. SH30228.01) • Penicillin-Streptomycin (Gibco, Cat. No. 15140122) • DMSO (Sigma, Cat. No. D5879) • Centrifuge Tube, 15 ml (Excell Bio, Cat. No. CS015-0001) • Cell Culture Dish, (WHB, Cat. No. CS016-0128) • 12-well cell culture cluster (Corning, Cat. No. 3513) • RIPA lysate buffer (Thermo, Cat. No. 89900) • Protein Loding Buffer (Beyotime, Cat. No. P0015L) • BCA Protein Assay Kit (EpiZyme, Cat. No. ZJ102) • SDS-PAGE Fast Preparation Kit (EpiZyme, Cat. No. PG112) • Anti-GAPDH (14C10) Rabbit mAb (CST, Cat. No. 2118L) • Anti-SHP2 rabbit mAb (CST, Cat. No. 37525) • Peroxidase Affinipure (HRP) Goat Anti-Rabbit IgG (Zen Bioscience, Cat. No. 511203) • TBST (Biosharp, Cat. No. BL601A) • ECL chemiluminescence kit (4A Biotech, Cat. No. 4AW011-200)
# • (1) Cell culture medium: IMIDM medium+10% FBS+1% Pen Strep; • (2) PBS buffer: PBS powder was dissolved in 2 L of ultrapure water and sterilized; • (3) Cell lysate: RIPA lysate buffer is added with protease inhibitors at a ratio of 1:1000 before use.
# (1) MV-411 cells were cultured in the cell culture medium, and then well-growing cells were selected and inoculated in a 12-well plate, with 1 mL/well and 1×10^6 cells/well. The plate was incubated overnight in a 5% CO2 cell incubator at 37° C.
# (2) 10 mM storage solution of each drug was prepared using dimethylsulfoxide (DMSO). The stock solution was diluted gradually with DMSO before use, and then 1 μL of the compound solution was added to the cell culture well (to ensure that the DMSO concentration in the culture system was […]), so that the final drug concentration is 100 nM, 10 nM, 3 nM, 1 nM, 0.3 nM, and 0.1 nM. Two wells were set for each concentration. The plate was gently shaken and mixed. Additionally, negative control wells (containing an equal amount of DMSO) and positive control wells were included.
# (3) After 24 hours of cultivation, the cells were lysed using RIPA cell lysate, and the proteins were extracted. The protein concentration was measured using a BCA assay kit. 5× concentrated protein buffer was loaded, heated at 100° C. for 5 min, and then the sample was stored at −20° C.
# (4) For each well, 30 μg of protein was loaded to polyacrylamide gel for electrophoresis.
# (5) The protein was transferred from polyacrylamide gel to PVDF membrane, and sealed at room temperature with 5% skimmed milk for 1 h, which was then incubated with the primary antibodies (Anti-SHP2 rabbit mAb and Anti-GAPDH rabbit mAb) at 4° C. overnight. The membrane was washed three times with TBST solution, 10 minutes for each time. After that, the membrane was incubated with the secondary antibodies (horseradish peroxidase labeled goat anti-rabbit IgG) at room temperature for 2 h, and then washed three times with TBST solution, 10 minutes for each time, followed by exposure.
# (6) The images were analyzed with Image J grayscale, and the degradation ratio of protein bands in the test group was calculated, based on the negative control group (DMSO) (100%).
# (7) Using the Dose-response-inhibition equation in the data processing software GraphPad Prism 8, the DC50 value was obtained (which represents the drug concentration corresponding to 50% degradation of the target protein).
# Finally, ECL detection solution was added for color development, and photos were taken with an automatic chemiluminescence instrument, so as to collect images and analyze them.
row,Compound,DC50 [nM]
1,CC1(N)CCN(c2cnc(Sc3cccc(NC(=O)CCCCCCCOC4CCN(c5ncc(C(=O)Nc6ccc7c(c6)C(=O)N(C6CCC(=O)NC6=O)C7)cn5)CC4)c3)cn2)CC1 (stereo not drawn) [Compound 94],> 1000
2,Cc1ncsc1-c1ccc([C@H](C)NC(=O)[C@@H]2C[C@@H](O)CN2C(=O)[C@@H](NC(=O)CCCCCCCCCCCCCCC(=O)Nc2cccc(Sc3cnc(N4CCC(C)(N)CC4)cn3)c2)C(C)(C)C)cc1 [Compound 51],< 100
3,Cc1ncsc1-c1ccc([C@H](C)NC(=O)[C@@H]2C[C@@H](O)CN2C(=O)[C@@H](NC(=O)[C@@H]2C[C@H]2C(=O)N2CCC3(CN(C(=O)CCCCCC(=O)Nc4cccc(Sc5cnc(N6CCC(C)(N)CC6)cn5)c4)C3)C2)C(C)(C)C)cc1 [Compound 130],< 100
4,CC1(N)CCN(c2cnc(Sc3cccc(NC(=O)CCC(=O)NCCOCCOCCOCC(=O)Nc4ccc5c(c4)C(=O)N(C4CCC(=O)NC4=O)C5)c3)cn2)CC1 (stereo not drawn) [Compound 22],> 1000
5,Cc1ncsc1-c1ccc([C@H](C)NC(=O)[C@@H]2C[C@@H](O)CN2C(=O)[C@@H](NC(=O)CCCCCCCCN2CCN(C(=O)CCC(=O)Nc3cccc(Sc4cnc(N5CCC(C)(N)CC5)cn4)c3)CC2)C(C)(C)C)cc1 [Compound 34],< 100
6,CC1(N)CCN(c2cnc(Sc3cccc(NC(=O)CCCCCCCCCCCNc4ccc(C(=O)NCc5ccc6c(c5)CN(C5CCC(=O)NC5=O)C6=O)nn4)c3)cn2)CC1 (stereo not drawn) [Compound 195],100 to 1000
7,"CC1(N)CCN(c2cnc(Sc3cccc(NC(=O)CCCCCCN4CC5(CCN(C6CCC(C(=O)NCc7ccc8c(c7)CN(C7CCC(=O)NC7=O)C8=O)CC6)C5)C4)c3)cn2)CC1 (stereo not drawn) [Compound 158, 4-(2-(7-((3-((5-(4-amino-4-methylpyridin-1-yl)pyrazin-2-yl)thio)phenyl)amino)-7-oxoheptyl)-2,6-diazaspiro[3.4]octan6-yl)-N-((2-(2,6-dioxopiperidin-3-yl)-1-oxoisoindol-5-yl)methyl)cyclohexane-1-formamide]",100 to 1000
8,CC1(N)CCN(c2cnc(Sc3cccc(NC(=O)[C@H]4CCC[C@@H]4C(=O)N4CCN(CCCCCCCCC(=O)NCc5ccc6c(c5)CN(C5CCC(=O)NC5=O)C6=O)CC4)c3)cn2)CC1 (stereo partly drawn) [Compound 25],> 1000
9,CC1(N)CCN(c2cnc(Sc3cccc(NC(=O)CCC(=O)N4CC5(CN(CCCCCCCC(=O)NCc6ccc7c(c6)CN(C6CCC(=O)NC6=O)C7=O)C5)C4)c3)cn2)CC1 (stereo not drawn) [Compound 31],> 1000
10,CC1(N)CCN(c2cnc(Sc3cccc(NC(=O)CCN4CC5(CCN(c6ncc(C(=O)NCc7ccc8c(c7)CN(C7CCC(=O)NC7=O)C8=O)cn6)C5)C4)c3)cn2)CC1 (stereo not drawn) [Compound 65],< 100
11,CC1(N)CCN(c2cnc(Sc3cccc(NC(=O)[C@@H]4C[C@H]4C(=O)N4CC5(CN(CCCCCCCC(=O)NCc6ccc7c(c6)CN(C6CCC(=O)NC6=O)C7=O)C5)C4)c3)cn2)CC1 (stereo partly drawn) [Compound 38],< 100
12,CC1(N)CCN(c2cnc(Sc3cccc(NC(=O)CCCCCCCN4CC5(CC(n6cc(C#Cc7ccc8c(c7)CN(C7CCC(=O)NC7=O)C8=O)cn6)C5)C4)c3)cn2)CC1 (stereo not drawn) [Compound 172],< 100
13,CN[C@H](C)C(=O)N[C@@H](C(=O)N1C[C@@H](NC(=O)c2ccc(N3CC(C)N(CCCCCCCCC(=O)Nc4cccc(Sc5cnc(N6CCC(C)(N)CC6)cn5)c4)C(C)C3)nn2)C[C@@H]1C(=O)Nc1c(F)cccc1F)C(C)(C)C (stereo partly drawn) [Compound 139],> 1000
14,CC1(N)CCN(c2cnc(Sc3cccc(NC(=O)COCCOCCOCCOCC(=O)Nc4ccc5c(c4)C(=O)N(C4CCC(=O)NC4=O)C5)c3)cn2)CC1 (stereo not drawn) [Compound 4],100 to 1000
15,Cc1ncsc1-c1ccc([C@H](C)NC(=O)[C@@H]2C[C@@H](O)CN2C(=O)[C@@H](NC(=O)CCCCCCCCCCCCC(=O)Nc2cccc(Sc3cnc(N4CCC(C)(N)CC4)cn3)c2)C(C)(C)C)cc1 [Compound 50],< 100
16,CN(Cc1ccc2c(c1)CN(C1CCC(=O)NC1=O)C2=O)C(=O)c1ccc(N2CC3CC(OCCCCCCC(=O)Nc4cccc(Sc5cnc(N6CCC(C)(N)CC6)cn5)c4)CC3C2)nn1 (stereo not drawn) [Compound 184],< 100
17,CC1(C(N)=O)CCN(c2cnc(Sc3cccc(NC(=O)CCCCCCCCN4CCN(c5ncc(C(=O)NCc6cccc7c6CN(C6CCC(=O)NC6=O)C7=O)cn5)CC4)c3)cn2)CC1 (stereo not drawn) [Compound 61],> 1000
18,CC1(N)CCN(c2cnc(Sc3cccc(NC(=O)CCCCCCN4CC5(CCN(C(=O)/C=C/C(=O)NCc6ccc7c(c6)CN(C6CCC(=O)NC6=O)C7=O)C5)C4)c3)cn2)CC1 (stereo not drawn) [Compound 117],> 1000

# Continued, values first:
row,DC50 [nM],Compound
1,< 100,CC1(N)CCN(c2cnc(Sc3cccc(NC(=O)CCCCN4CC5(CCN(c6ncc(C(=O)NCc7ccc8c(c7)CN(C7CCC(=O)NC7=O)C8=O)cn6)C5)C4)c3)cn2)CC1 (stereo not drawn) [Compound 89]
2,> 1000,CC1(N)CCN(c2cnc(Sc3cccc(NC(=O)CCN4CC5(CCN(c6ccc(C(=O)NCc7ccc8c(c7)CN(C7CCC(=O)NC7=O)C8=O)nn6)C5)C4)c3)cn2)CC1 (stereo not drawn) [Compound 97]
3,> 1000,"CC1(N)CCN(c2cnc(Sc3cccc(NC(=O)CCCCCCN4CC5(CCN(c6ccc(C(NCc7ccc8c(c7)CN(C7CCC(=O)NC7=O)C8=O)C(F)(F)F)nn6)C5)C4)c3)cn2)CC1 (stereo not drawn) [Compound 193, N-(3-((5-(4-amino-4-methylpyridin-1-yl)pyrazin-2-yl)thio)phenyl)-7-(6-(6-(1-(((2-(2,6-dioxopiperidin-3-yl)-1-oxoisoindol-5-yl)methyl)amino)-2,2,2-trifluoroethyl)pyridazin-3-yl)-2,6-diazaspiro[3.4]octan-2-yl)heptanamide]"
4,> 1000,NC1(CF)CCN(c2cnc(Sc3cccc(NC(=O)CCCCN4CC5(CCN(c6ccc(C(=O)NCc7ccc8c(c7)CN(C7CCC(=O)NC7=O)C8=O)nn6)C5)C4)c3)cn2)CC1 (stereo not drawn) [Compound 137]
5,> 1000,NC1CN(c2cnc(Sc3cccc(NC(=O)CCCCCCN4CC5(CCN(c6ccc(C(=O)NCc7ccc8c(c7)CN(C7CCC(=O)NC7=O)C8=O)nn6)C5)C4)c3)cn2)CC1O (stereo not drawn) [Compound 206]
6,> 1000,NC1(CO)CCN(c2cnc(Sc3cccc(NC(=O)CCCCCCN4CC5(CCN(c6ccc(C(=O)NCc7ccc8c(c7)CN(C7CCC(=O)NC7=O)C8=O)nn6)C5)C4)c3)cn2)C1 (stereo not drawn) [Compound 198]
7,> 1000,N[C@H]1CCN(c2cnc(Sc3cccc(NC(=O)CCCCCCN4CC5(CCN(c6ccc(C(=O)NCc7ccc8c(c7)CN(C7CCC(=O)NC7=O)C8=O)nn6)C5)C4)c3)cn2)C[C@@H]1O (stereo partly drawn) [Compound 197]
8,< 100,NC1(CF)CCN(c2cnc(Sc3cccc(NC(=O)CCCCCCCO[C@H]4CCN(c5ccc(C(=O)NCc6ccc7c(c6)CN(C6CCC(=O)NC6=O)C7=O)nn5)C4)c3)cn2)CC1 (stereo partly drawn) [Compound 135]
9,100 to 1000,NC1(CF)CCN(c2cnc(Sc3ccc(NC(=O)COCCCCCN4CC5(CCN(c6ccc(C(=O)NCc7ccc8c(c7)CN(C7CCC(=O)NC7=O)C8=O)nn6)C5)C4)cc3)cn2)CC1 (stereo not drawn) [Compound 123]
